Data published in patent US8906913B2, “Azabicyclohexanes” (Panacea Biotec Limited, priority 2009, dated 2014).
Values after ≈ are worked out from the molar mass of the structure shown. Read-outs that look alike come from different tables or passages of the source. Marks after values point to notes of the source that are not given here.

Columns and labels:
male SWISS albino mice = assay: Forced Swim Test; assay type: in vivo; settings: for inhibition in vivo at 32 mg/kg: Mus musculus, 0.25 h, read-out: % decrease in immobility time (dose 32 mg/kg)
Procedure: This test was conducted according to the method of Porsolt et al. (Porsolt, R. D., et al., Behavioural despair in mice: A primary screening test for antidepressants. Arch. in Pharmacodyn. Ther., 229, pp 327-336 (1977)).
A test compound was suspended in deionized water, unless otherwise specified, and this suspension was orally administered to male SWISS albino mice (7 to 9 week old). 15 min later, the mice were placed in a water tank having a water depth of 15 cm and a water temperature of 25±1° C. and immediately thereafter allowed to swim for 6 min. Then, a time during which the mouse was immobile (immobility time) was measured for the last 4 min.

[1] = test system: Enterococcus faecalis ATCC 29212 Vancomycin Sensitive; assay: In-vitro antibacterial activity, broth microdilution MIC; assay type: cell-based
Procedure: (§1) The in-vitro antibacterial activity of the compounds of the present invention (as described in Table 7) was determined by a broth microdilution following the guidelines prescribed by the Clinical and Laboratory Standards Institute (CLSI). This method is described in the CLSI Document M7-A7, Vol. 26, No. 2, “Methods for Dilution Antimicrobial Susceptibility Test for Bacteria that Grow Aerobically; Approved Standard-Seventh Edition”, which is incorporated herein by reference. Minimum Inhibitory Concentration (MIC) is defined as the minimum concentration of test compound which inhibits the growth of bacteria as visible or seen by the naked eye. This test can also be carried out by agar dilution method.
(§2) The compounds of the present invention were tested against a panel of standard microorganisms obtained from ATCC (American type culture collection). Linezolid was used as comparator in all the tests.
(§3) In the broth microdilution method, the compound was dissolved in dimethylsulfoxide and two fold serial dilutions were carried out in 96 well microtitre plates. The inoculum was prepared by adjusting the turbidity of actively growing broth culture and added to the wells to obtain a final bacterial count of ˜2-5×10^4 CFU/well. The microtitre plates were incubated at 35±2° C. for 16-20 h and then read visually.

[2] = test system: Staphylococcus aureus ATCC 29213 MSSA (Methicillin sensitive); assay: as above; assay type: cell-based
Procedure: as §1, §2, §3

[3] = test system: Enterococcus faecium ATCC 700221 VRE (Vancomycin resistant E. faecium); assay: as above; assay type: cell-based
Procedure: as §1, §2, §3

[4] = test system: Staphylococcus aureus ATCC 33591 MRSA (Methicillin resistant); assay: as above; assay type: cell-based
Procedure: as §1, §2, §3

[5] = Table 8, mice, oral, 32 mg/kg, suspended in deionized water, 15 min before test
[6] = Table 8, mice, oral, suspended in deionized water, 15 min before test
[7] = ATCC29212, Table 7, E. faecalis vancomycin sensitive, broth microdilution, 35±2° C., 16-20 h, read-out: MIC ATCC 29212
[8] = Table 7, S. aureus MSSA, broth microdilution, 35±2° C., 16-20 h, read-out: MIC ATCC 29213
[9] = Table 7, broth microdilution, 35±2° C., 16-20 h, read-out: MIC ATTC 700221
[10] = Table 7, S. aureus MRSA, broth microdilution, 35±2° C., 16-20 h, read-out: MIC ATCC 33591

Row | MIC [1, 7] [µg/mL] | MIC [2, 8] [µg/mL] | MIC [3, 9] [µg/mL] | MIC [4, 10] [µg/mL] | SMILES | further results
1 | – | – | – | – | CCN1CC2C(COC)C2(c2ccc(N3CCCC3)cc2)C1 (stereo not shown) [drawing 531] | inhibition in vivo at 32 mg/kg (male SWISS albino mice; [5]): 97.2 ± 1.2%
2 | – | – | – | – | COCCN1CC2CC2(c2ccc(N3CCOCC3)cc2)C1 (stereo not shown) | % decrease in immobility time (dose 64 mg/kg) (male SWISS albino mice; [6]): 62.4 ± 16.3%
3 | – | – | – | – | CCN1C[C@H]2C[C@@]2(c2ccc(N3C[C@H](C)O[C@@H](C)C3)cc2)C1 | inhibition in vivo at 32 mg/kg (male SWISS albino mice; [5]): 79.8 ± 10.7%
4 | 1 (≈ 2.23 µM) | 1 (≈ 2.23 µM) | 0.5 (≈ 1.12 µM) | 1 (≈ 2.23 µM) | CC(=O)NC[C@H]1CN(c2ccc(C34CC3CN(C(=O)CCc3ccccc3)C4)cc2)C(=O)O1 (stereo partly shown) | –
5 | 2 (≈ 4.98 µM) | 2 (≈ 4.98 µM) | 1 (≈ 2.49 µM) | 1 (≈ 2.49 µM) | CC(=O)NC[C@H]1CN(c2ccc(C34CC3CN(C(=O)OC(C)C)C4)cc2)C(=O)O1 (stereo partly shown) | –
6 | 2 (≈ 5.22 µM) | 1 (≈ 2.61 µM) | 1 (≈ 2.61 µM) | 0.5 (≈ 1.3 µM) | COC(=O)N1CC2CC2(c2ccc(N3C[C@H](Cn4ccnn4)OC3=O)cc2)C1 (stereo partly shown) | –
7 | – | – | – | – | CCN1C[C@H]2C[C@@]2(c2ccc(N3CCOCC3)cc2)C1 | inhibition in vivo at 32 mg/kg (male SWISS albino mice; [5]): 87.7 ± 6%
8 | – | – | – | – | COCC1C2CNCC21c1ccc(N2CCOCC2)cc1 (stereo not shown) | % decrease in immobility time (dose 64 mg/kg) (male SWISS albino mice; Table 8, mice, oral, vehicle 0.25% CMC): 60.8 ± 20.9^z %
9 | – | – | – | – | CCN1CC2CC2(c2ccc(N3CCn4cnnc4C3)cc2)C1 (stereo not shown) | % decrease in immobility time (dose 64 mg/kg) (male SWISS albino mice; [6]): 89.6 ± 10.4%
10 | 1 (≈ 2.66 µM) | 1 (≈ 2.66 µM) | 0.5 (≈ 1.33 µM) | 0.5 (≈ 1.33 µM) | CC(=O)NC[C@H]1CN(c2ccc(C34CC3CN(C(C)=O)C4)c(F)c2)C(=O)O1 (stereo partly shown) | –
11 | 4 (≈ 12.6 µM) | 4 (≈ 12.6 µM) | 4 (≈ 12.6 µM) | 2 (≈ 6.32 µM) | CC(=O)N1CC2CC2(c2ccc(N3C[C@H](CO)OC3=O)cc2)C1 (stereo partly shown) [drawing 484] | –
12 | 1 (≈ 2.44 µM) | 1 (≈ 2.44 µM) | 0.5 (≈ 1.22 µM) | 0.5 (≈ 1.22 µM) | CC(=O)NC[C@H]1CN(c2ccc(C34CC3CN(c3ccc(F)nc3)C4)cc2)C(=O)O1 (stereo partly shown) | –
13 | 1 (≈ 2.94 µM) | 0.5 (≈ 1.47 µM) | 0.5 (≈ 1.47 µM) | 0.5 (≈ 1.47 µM) | CC(=O)NC[C@H]1CN(c2ccc(C34CC3CN(C#N)C4)cc2)C(=O)O1 (stereo partly shown) | –
14 | 1 (≈ 2.57 µM) | 1 (≈ 2.57 µM) | 1 (≈ 2.57 µM) | 1 (≈ 2.57 µM) | COC(=O)NC[C@H]1CN(c2ccc(C34CC3CN(C(=O)OC)C4)cc2)C(=O)O1 (stereo partly shown) | –
15 | – | – | – | – | COCCN1C[C@H]2C[C@@]2(c2ccc(N3CCOCC3)cc2)C1 | % decrease in immobility time (dose 64 mg/kg) (male SWISS albino mice; [6]): 79.2 ± 14.9%
16 | – | – | – | – | CC1CN(c2ccc([C@]34CNC[C@H]3C4)cc2)CC(C)O1 (stereo partly shown) | % decrease in immobility time (dose 64 mg/kg) (male SWISS albino mice; [6]): 63.9 ± 4.8%
17 | – | – | – | – | CCN1CC2CC2(c2ccc(N3CC(C)OC(C)C3)cc2)C1 (stereo not shown) | inhibition in vivo at 32 mg/kg (male SWISS albino mice; [5]): 81.6 ± 10.1%
18 | 2 (≈ 4.76 µM) | 2 (≈ 4.76 µM) | 2 (≈ 4.76 µM) | 1 (≈ 2.38 µM) | CC(=O)NC[C@H]1CN(c2ccc(C34CC3CN(C(=O)c3cccnc3)C4)cc2)C(=O)O1 (stereo partly shown) | –
19 | – | – | – | – | CC(=O)NC[C@H]1CN(c2ccc(C34CC3CN(C(C)=O)C4)cc2)C(=O)O1 (stereo partly shown) [drawing 533] | MIC ([1]; ATCC29212, Table 9, E. faecalis, read-out: Antimicrobial activity (in vitro MIC) ATCC 29212): 2 µg/mL (≈ 5.6 µM); MIC ([2]; Table 9, S. aureus MSSA, read-out: Antimicrobial activity (in vitro MIC) ATCC 29213): 2 µg/mL (≈ 5.6 µM); MIC ([3]; Table 9, read-out: Antimicrobial activity (in vitro MIC) ATCC 700221): 2 µg/mL (≈ 5.6 µM); MIC ([4]; Table 9, S. aureus MRSA, read-out: Antimicrobial activity (in vitro MIC) ATCC 33591): 1 µg/mL (≈ 2.8 µM)
20 | 1 (≈ 2.29 µM) | 1 (≈ 2.29 µM) | 0.5 (≈ 1.14 µM) | 1 (≈ 2.29 µM) | CC(=O)NC[C@H]1CN(c2ccc(C34CC3CN(C(=O)C(=O)c3ccco3)C4)cc2)C(=O)O1 (stereo partly shown) | –
21 | 1 (≈ 2.68 µM) | 2 (≈ 5.36 µM) | 1 (≈ 2.68 µM) | 1 (≈ 2.68 µM) | COC(=O)N1C[C@H]2C[C@@]2(c2ccc(N3C[C@H](CNC(C)=O)OC3=O)cc2)C1 | –
22 | 8 (≈ 19.7 µM) | 4 (≈ 9.84 µM) | 2 (≈ 4.92 µM) | 4 (≈ 9.84 µM) | CC(=O)NC[C@H]1CN(c2ccc(C34CC3CN(Cc3cccnc3)C4)cc2)C(=O)O1 (stereo partly shown) | –
23 | – | – | – | – | CCN1CC2CC2(c2ccc(N3CCOC3=O)cc2)C1 (stereo not shown) | inhibition in vivo at 32 mg/kg (male SWISS albino mice; po): 99.2 ± 0.8%
24 | – | – | – | – | CCN1C[C@H]2C[C@@]2(c2ccc(N3CC(C)OC(C)C3)cc2)C1 (stereo partly shown) | % decrease in immobility time (dose 64 mg/kg) (male SWISS albino mice; [6]): 92.4 ± 7.6%
25 | – | – | – | – | CCOCC1C2CN(CC)CC12c1ccc(N2CCCC2)cc1 (stereo not shown) | inhibition in vivo at 32 mg/kg (male SWISS albino mice; [5]): 80.6 ± 13.7%
